Reference: patent US9573970B2, “4-{4-[(1E)-4-(2,9-diazaspiro[5.5]undec-2-yl)but-1-en-1-yl]-2-methylbenzyl}-5-(propan-2-yl)-1H-pyrazol-3-yl beta-D glucopyranoside acetate” (Eli Lilly and Company, priority 2013, dated 2017)

Legend:
[1] = system: normal glycemic C57B1/6 mouse; assay: Glucose lowering effects in oral glucose tolerance test (OGTT); format: in vivo; details: for Glucose, 20 Minute: 20 min after dextrose; for Glucose, 20 Minute / Glucose, 40 Minute / Glucose, 60 Minute / Glucose, 120 Minute / Baseline Adjusted AUC (glucose) / Glucose, 0 Minute: mean ± SE; for Glucose, 40 Minute: 40 min after dextrose; for Glucose, 60 Minute: 60 min after dextrose; for Glucose, 120 Minute: 120 min after dextrose; for Baseline Adjusted AUC (glucose): OGTT; for Glucose, 0 Minute: baseline 3 h after compound, before dextrose 3 g/kg
Procedure: The test compound is formulated by adding a vehicle of 1% hydroxyethylcellulose, 0.25% Tween® 80 w/antifoam 0.05% to preweighed test compound to make a 1 mg/ml solution. The mixture is probe sonicated for approximately 30 seconds. The resulting solution is used as a stock solution from which the lower concentration dose solutions are prepared by dilution with the vehicle.
Single housed C57B1/6 mice are fasted overnight by removing access to food the late afternoon before test day. The following morning, the mice are weighed and a single fasting blood sample is taken by tail snip to measure glucose by glucometer (Roche AccuChek). Study groups (n=5) are determined based on fasted blood glucose and comprise preferably animals in the range of 80-100 mg/dl glucose.
After grouping, the first mouse is orally gavaged with 10 ml/kg test compound preparation and a timer started. Each subsequent animal is dosed a minute and a half apart. Three hours after the first compound treatment is started, a baseline blood sample is taken for measuring glucose (from the first animal, via tail snip). The animal is then immediately given an oral dose of 50% dextrose (Hospira) at 3 g/kg. Blood samples are taken for glucose, exactly a minute and half apart, by tail vein so that blood is collected in each animal at 20, 40, 60 and 120 minutes after the dextrose dose.

mouse SGLT1 = target: T1, mouse SGLT1 (Mus musculus, UniProt Q8C3K6); assay: Sodium-dependent 14C-AMG uptake in CHO-K1 cells expressing mouse SGLT1; format: cell-based; details: n = 9
T1 sequence (Q8C3K6 1-665): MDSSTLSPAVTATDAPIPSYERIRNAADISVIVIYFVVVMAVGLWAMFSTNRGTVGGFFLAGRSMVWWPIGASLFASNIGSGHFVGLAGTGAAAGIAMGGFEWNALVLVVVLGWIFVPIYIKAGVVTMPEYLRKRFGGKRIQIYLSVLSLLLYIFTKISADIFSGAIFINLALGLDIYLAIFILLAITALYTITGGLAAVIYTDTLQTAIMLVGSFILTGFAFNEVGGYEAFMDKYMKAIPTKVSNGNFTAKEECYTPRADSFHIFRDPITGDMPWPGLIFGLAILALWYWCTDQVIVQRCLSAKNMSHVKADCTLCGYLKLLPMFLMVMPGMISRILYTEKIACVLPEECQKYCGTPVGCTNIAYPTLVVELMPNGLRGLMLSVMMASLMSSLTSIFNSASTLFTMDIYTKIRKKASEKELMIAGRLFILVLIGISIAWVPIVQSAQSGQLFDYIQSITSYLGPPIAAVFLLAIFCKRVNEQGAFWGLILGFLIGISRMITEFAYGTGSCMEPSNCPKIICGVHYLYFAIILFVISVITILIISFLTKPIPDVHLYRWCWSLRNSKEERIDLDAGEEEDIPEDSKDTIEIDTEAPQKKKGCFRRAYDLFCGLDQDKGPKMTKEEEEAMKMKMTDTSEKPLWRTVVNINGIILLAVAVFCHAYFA
From the text: The cDNA encoding human SGLT1 (slc5a1, NM_000343), human SGLT2 (slc5a2, NM_003041) and mouse SGLT1 (slc5a1, NM_019810.4) are purchased from Openbiosystems, Invitrogen and Openbiosystems, respectively. The cDNA is cloned into pcDNA3.1+ for mammalian expression and is stably transfected into Chinese hamster ovary (CHO)-K1 cells using standard mammalian transfection procedures. An SGLT-expressing sub-clone of each over-expressing cell line is selected based on resistance to neomycin (Geneticin, Invitrogen) and activity in the ^14C-α-methyl-D-glucopyranoside (^14C-AMG) uptake assay (see below). Stable SGLT-expressing cells are maintained using standard cell culture techniques.
The SGLT activity is measured as sodium-dependent ^14C-AMG uptake in the above cell lines described as follows. One hundred μL of culture medium containing 30,000 cells are seeded to each well of a 96-well BioCoat poly-D-lysine plate (Becton Dickson) and cultured at 37° C. overnight. The culture medium is aspirated and cells are washed twice with 200 μL of Reaction Buffer (140 mM NaCl, 2 mM KCl, 1 mM CaCl2, MgCl2, and 14 mM N-2-hydroethylpiperrazine-N′-2-ethanesulfonic acid (Hepes), pH 7.5). The excess buffer is tapped out onto paper towels. Thirty-five μL of Reaction Buffer are added to each well. […] After mixing, the scintillation signal in the plate is counted in a MicroBeta (PerkinElmer). […]

Q: Cc1cc(/C=C/CCN2CCCC3(CCNCC3)C2)ccc1Cc1c(O[C@@H]2O[C@H](CO)[C@@H](O)[C@H](O)[C@H]2O)n[nH]c1C(C)C [Example 1 (free base), 4-{4-[(1E)-4-(2,9-diazaspiro[5.5]undec-2-yl)but-1-en-1-yl]-2-methylbenzyl}-5-(propan-2-yl)-1H-pyrazol-3-yl beta-D-glucopyranoside] was tested. Which “Glucose, 20 Minute” value ([1]; 0.3 mg/kg oral) did it give?
A: 185 ± 13.7 mg/dL

Q: What about the “Glucose, 40 Minute” value ([1]; 0.3 mg/kg oral) of the same compound?
A: 197 ± 14.7 mg/dL

Q: What about the “Glucose, 60 Minute” value ([1]; 0.3 mg/kg oral) of the same compound?
A: 164 ± 6.3 mg/dL

Q: What about the “Glucose, 120 Minute” value ([1]; 0.3 mg/kg oral) of the same compound?
A: 121 ± 11.8 mg/dL

Q: And the “Baseline Adjusted AUC (glucose)” value ([1]; 0.3 mg/kg oral, in mg·min/dL)?
A: 5400 ± 519^

Q: What about the “Glucose, 0 Minute” value ([1]; 0.3 mg/kg oral) of the same compound?
A: 78 ± 4.2 mg/dL

Q: What about the “Glucose, 20 Minute” value ([1]; 1 mg/kg oral) of the same compound?
A: 147 ± 8.3 mg/dL

Q: What about the “Glucose, 40 Minute” value ([1]; 1 mg/kg oral) of the same compound?
A: 171 ± 11.1 mg/dL

Q: What about the “Glucose, 60 Minute” value ([1]; 1 mg/kg oral) of the same compound?
A: 162 ± 5.8 mg/dL

Q: And the “Glucose, 120 Minute” value ([1]; 1 mg/kg oral)?
A: 109 ± 7.3 mg/dL

Q: What about the “Baseline Adjusted AUC (glucose)” value ([1]; 1 mg/kg oral, in mg·min/dL) of the same compound?
A: 4158 ± 374^

Q: What about the “Glucose, 0 Minute” value ([1]; 1 mg/kg oral) of the same compound?
A: 76 ± 3.3 mg/dL

Q: What about the “Glucose, 20 Minute” value ([1]; 3 mg/kg oral) of the same compound?
A: 133 ± 7.1 mg/dL

Q: What about the “Glucose, 40 Minute” value ([1]; 3 mg/kg oral) of the same compound?
A: 150 ± 7.5 mg/dL

Q: What about the “Glucose, 60 Minute” value ([1]; 3 mg/kg oral) of the same compound?
A: 155 ± 7.2 mg/dL

Q: What about the “Glucose, 120 Minute” value ([1]; 3 mg/kg oral) of the same compound?
A: 115 ± 10 mg/dL

Q: And the “Baseline Adjusted AUC (glucose)” value ([1]; 3 mg/kg oral)?
A: 3606 ± 421

Q: What about the “Glucose, 0 Minute” value ([1]; 3 mg/kg oral) of the same compound?
A: 72 ± 2.6 mg/dL

Q: And the “Glucose, 20 Minute” value ([1]; 10 mg/kg oral)?
A: 124 ± 1.2 mg/dL

Q: And the “Glucose, 40 Minute” value ([1]; 10 mg/kg oral)?
A: 137 ± 5.4 mg/dL

Q: What about the “Glucose, 60 Minute” value ([1]; 10 mg/kg oral) of the same compound?
A: 138 ± 6.1 mg/dL

Q: And the “Glucose, 120 Minute” value ([1]; 10 mg/kg oral)?
A: 114 ± 4.3 mg/dL

Q: What about the “Baseline Adjusted AUC (glucose)” value ([1]; 10 mg/kg oral) of the same compound?
A: 2693 ± 309

Q: What about the “Glucose, 0 Minute” value ([1]; 10 mg/kg oral) of the same compound?
A: 78 ± 5.4 mg/dL

Q: What about the “Baseline adjusted glucose AUC during an OGTT” value ([1]; 0.3-10 mg/kg oral, in words) of the same compound?
A: dose dependent decrease in baseline adjusted glucose area under the curve (AUC)

Q: And the “Glucose excursion following an oral bolus of 50% dextrose” value ([1]; 0.3-10 mg/kg oral, in words)?
A: dose dependent decrease in the glucose excursion

Q: And the IC50 (mouse SGLT1)?
A: 10 ± 2 nM
